From US9260395B2, “Inhibitors of viral replication, their process of preparation and their therapeutical uses” (priority 2012, dated 2016)

System: NL4-3 strain of HIV-1
Experiment: Cyto-protection (CellTiter-Glo viability) assay of MT4 cells infected with NL4-3 virus; inhibition of HIV replication
Format: cell-based
Conditions: Human immunodeficiency virus 1, NL43, 120 h; concentration leading to 50% of cyto-protection; MT4 cells infected with NL4-3 virus; 5 days incubation; CellTiter-Glo; read-out: EC50
Protocol: Preparation of Virus stock of the NL4-3 strain of HIV-1 (Adachi et al, J Virol, 1986, 59(2):284-91).
The virus was prepared as described in Lopez et al (Lopez et al, Proc Natl Acad Sci USA., 2006, 103(40):14947-52, by transfecting 2×10^6 293 T cells (CRL-1573, ATCC) with following modifications: 6 μg of NL4-3 proviral DNA molecular clone were mixed with Fugene 6 transfection reagent from Roche, and used according to manufacturer's instructions. Forty eight hours later, transfected cell supernatants were harvested, filtered through 0.45-μm-pore-size filters, quantified for HIV-1 p24 antigen by using a Innotest HIV antigen mAb assay (Ingen) according to manufacturer's instructions, and used in infection experiments.
Serial dilutions of compounds to be tested were prepared in complete RPMI medium from 10 mM DMSO stock solutions, and I in 96 well Falcon 353072 Microtest[…]distributed in a volume of 20™ tissue culture plate, in order to get 0.5% DMSO final concentration in each well, after the addition of infected cells. Control wells contained also 0.5% DMSO final concentration but no compound.
MT4 cells (from the NIH AIDS Research and Reference Reagent Program) in RPMI complete medium were counted (10×10^6 cells per well in Falcon 353047 Multiwell™ 24 well) and infected for 2 hours at 37°, at a multiplicity of infection (moi) of 0.0001-0.00001. Cells were then centrifuged 3 min at 3000 rpm, and washed two times in 1 ml PBS to remove viruses that have not entered in cells. Infected cells were resuspended in complete RPMI at 1.25×10^6 cells/ml and 80 μl of infected cells were distributed in each well containing compound to be tested or control wells. The plates were then incubated at 37° for 5 days.
Assay used to measure the inhibition of HIV replication by the compounds (according to Gregg S. Jones et al., Antimicrobial Agents and Chemotherapy, 2009, 53 (3): 1194-1203).
After 5 days of incubation, microplates were equilibrated to room temperature for 30 mn and then 50 μl of CellTiter-Glo reagent (Promega Biosciences, Inc., Madison Wis., USA) were added to each well. Cell lysis was carried out at room temperature during 10 min, 150μl of lysates were transferred in Packard Optiplate 96 well, and luminescence was read on a Fluoroskan (Thermo Scientific).
The EC50, or effective concentration 50, is the concentration of compound leading to 50% of cyto-protection in a Cell-Titer-Glo® viability assay based on MT4 cells infected with NL4-3 virus (table 1).

SMILES	EC50
Cn1nc(-c2cccs2)c(C2=CCC(C)(C)CC2)c1C(OC(C)(C)C)C(=O)O (stereo not drawn) [Example 6, 2-(tert-butoxy)-2-[4-(4,4-dimethylcyclohex-1-en-1-yl)-1-methyl-3-(thiophen-2-yl)-1H-pyrazol-5-yl]acetic acid]	470 nM
Cn1nc(C2=CCCCC2)c(-c2ccc3c(c2)CCCO3)c1C(OC(C)(C)C)C(=O)O (stereo not drawn) [Example 13, 2-(tert-butoxy)-2-[3-(cyclohex-1-en-1-yl)-4-(3,4-dihydro-2H-1-benzopyran-6-yl)-1-methyl-1H-pyrazol-5-yl]acetic acid]	170 nM
Cn1nc(-c2ccccc2)c(-c2ccc3c(c2)CCCO3)c1C(OC(C)(C)C)C(=O)O (stereo not drawn) [Example 2, 2-(tert-butoxy)-2-[4-(3,4-dihydro-2H-1-benzopyran-6-yl)-1-methyl-3-phenyl-1H-pyrazol-5-yl]acetic acid]	680 nM
Cc1c(-c2c(-c3cccs3)nn(C)c2C(OC(C)(C)C)C(=O)O)cc(F)c2c1CCCO2 (stereo not drawn) [Example 10, 2-(tert-butoxy)-2-[4-(8-fluoro-5-methyl-3,4-dihydro-2H-1-benzopyran-6-yl)-1-methyl-3-(thiophen-2-yl)-1H-pyrazol-5-yl]acetic acid]	1100 nM
Cn1nc(C2=CC(O)CCC2)c(-c2ccc3c(c2)CCCO3)c1C(OC(C)(C)C)C(=O)O (stereo not drawn) [Example 43, 2-(tert-butoxy)-2-[4-(3,4-dihydro-2H-1-benzopyran-6-yl)-3-(3-hydroxycyclohex-1-en-1-yl)-1-methyl-1H-pyrazol-5-yl]acetic acid]	9200 nM
C=C(C)c1nn(C)c(C(OC(C)(C)C)C(=O)O)c1-c1ccc2c(c1)CCCO2 (stereo not drawn) [Example 22, 2-(tert-butoxy)-2-[4-(3,4-dihydro-2H-1-benzopyran-6-yl)-1-methyl-3-(prop-1-en-2-yl)-1H-pyrazol-5-yl]acetic acid]	8000 nM
CC1C=C(c2nn(C)c(C(OC(C)(C)C)C(=O)O)c2-c2ccc3c(c2)CCCO3)CCC1 (stereo not drawn) [Example 17, 2-(tert-butoxy)-2-[4-(3,4-dihydro-2H-1-benzopyran-6-yl)-1-methyl-3-(3-methylcyclohex-1-en-1-yl)-1H-pyrazol-5-yl]acetic acid]	740 nM
CCCc1cc(-c2nn(C)c(C(OC(C)(C)C)C(=O)O)c2-c2ccc3c(c2)CCCO3)cs1 (stereo not drawn) [Example 11, 2-(tert-butoxy)-2-[4-(3,4-dihydro-2H-1-benzopyran-6-yl)-1-methyl-3-(5-propylthiophen-3-yl)-1H-pyrazol-5-yl]acetic acid]	830 nM
Cn1nc(C2=CCCCCC2)c(-c2ccc3c(c2)CCCO3)c1C(OC(C)(C)C)C(=O)O (stereo not drawn) [Example 16, 2-(tert-butoxy)-2-[3-(cyclohept-1-en-1-yl)-4-(3,4-dihydro-2H-1-benzopyran-6-yl)-1-methyl-1H-pyrazol-5-yl]acetic acid]	870 nM
C=C(c1nn(C)c(C(OC(C)(C)C)C(=O)O)c1-c1ccc2c(c1)CCCO2)C1CCCC1 (stereo not drawn) [Example 23, 2-(tert-butoxy)-2-[3-(1-cyclopentylethenyl)-4-(3,4-dihydro-2H-1-benzopyran-6-yl)-1-methyl-1H-pyrazol-5-yl]acetic acid]	2000 nM
Cn1nc(-c2cccs2)c(-c2ccc3c(c2)CCCO3)c1C(OC(C)(C)C)C(=O)O (stereo not drawn) [Example 3, 2-(tert-butoxy)-2-[4-(3,4-dihydro-2H-1-benzopyran-6-yl)-1-methyl-3-(thiophen-2-yl)-1H-pyrazol-5-yl]acetic acid]	290 nM
Cn1nc(-c2ccncc2)c(C2=CCC(C)(C)CC2)c1C(OC(C)(C)C)C(=O)O (stereo not drawn) [Example 39, 2-(tert-butoxy)-2-[4-(4,4-dimethylcyclohex-1-en-1-yl)-1-methyl-3-(pyridin-4-yl)-1H-pyrazol-5-yl]acetic acid]	5700 nM
CC(C)C1CC=C(c2c(-c3ccccc3)nn(C)c2C(OC(C)(C)C)C(=O)O)CC1 (stereo not drawn) [Example 41, 2-(tert-butoxy)-2-{1-methyl-3-phenyl-4-[4-(propan-2-yl)cyclohex-1-en-1-yl]-1H-pyrazol-5-yl}acetic acid]	6000 nM
Cn1nc(C2=CCCC2(C)C)c(-c2ccc3c(c2)CCCO3)c1C(OC(C)(C)C)C(=O)O (stereo not drawn) [Example 32, 2-(tert-butoxy)-2-[4-(3,4-dihydro-2H-1-benzopyran-6-yl)-3-(5,5-dimethylcyclopent-1-en-1-yl)-1-methyl-1H-pyrazol-5-yl]acetic acid]	3200 nM
Cn1nc(-c2ccsc2)c(-c2ccc3c(c2)CCCO3)c1C(OC(C)(C)C)C(=O)O (stereo not drawn) [Example 4, 2-(tert-butoxy)-2-[4-(3,4-dihydro-2H-1-benzopyran-6-yl)-1-methyl-3-(thiophen-3-yl)-1H-pyrazol-5-yl]acetic acid]	280 nM
Cn1nc(CC2CCCC2)c(-c2ccc3c(c2)CCCO3)c1C(OC(C)(C)C)C(=O)O (stereo not drawn) [Example 21, 2-(tert-butoxy)-2-[3-(cyclopentylmethyl)-4-(3,4-dihydro-2H-1-benzopyran-6-yl)-1-methyl-1H-pyrazol-5-yl]acetic acid]	9300 nM
CC1CCCC=C1c1nn(C)c(C(OC(C)(C)C)C(=O)O)c1-c1ccc2c(c1)CCCO2 (stereo not drawn) [Example 18, 2-(tert-butoxy)-2-[4-(3,4-dihydro-2H-1-benzopyran-6-yl)-1-methyl-3-(6-methylcyclohex-1-en-1-yl)-1H-pyrazol-5-yl]acetic acid]	500 nM
Cn1nc(C2CCCCC2)c(-c2ccc3c(c2)CCCO3)c1C(OC(C)(C)C)C(=O)O (stereo not drawn) [Example 20, 2-(tert-butoxy)-2-[3-cyclohexyl-4-(3,4-dihydro-2H-1-benzopyran-6-yl)-1-methyl-1H-pyrazol-5-yl]acetic acid]	1400 nM
Cn1nc(-c2ccc(Cl)s2)c(-c2ccc3c(c2)CCCO3)c1C(OC(C)(C)C)C(=O)O (stereo not drawn) [Example 36, 2-(tert-butoxy)-2-[3-(5-chlorothiophen-2-yl)-4-(3,4-dihydro-2H-1-benzopyran-6-yl)-1-methyl-1H-pyrazol-5-yl]acetic acid]	2700 nM
Cn1nc(-c2ccncc2)c(-c2ccc3c(c2)CCCO3)c1C(OC(C)(C)C)C(=O)O (stereo not drawn) [Example 40, 2-(tert-butoxy)-2-[4-(3,4-dihydro-2H-1-benzopyran-6-yl)-1-methyl-3-(pyridin-4-yl)-1H-pyrazol-5-yl]acetic acid]	6000 nM
Cn1nc(-c2ccsc2)c(C2=CCC(C)(C)CC2)c1C(OC(C)(C)C)C(=O)O (stereo not drawn) [Example 5, 2-(tert-butoxy)-2-[4-(4,4-dimethylcyclohex-1-en-1-yl)-1-methyl-3-(thiophen-3-yl)-1H-pyrazol-5-yl]acetic acid]	270 nM
CCCc1nn(C)c(C(OC(C)(C)C)C(=O)O)c1-c1ccc2c(c1)CCCO2 (stereo not drawn) [Example 30, 2-(tert-butoxy)-2-[4-(3,4-dihydro-2H-1-benzopyran-6-yl)-1-methyl-3-propyl-1H-pyrazol-5-yl]acetic acid]	32000 nM
Cn1nc(/C=C/C2CC2)c(-c2ccc3c(c2)CCCO3)c1C(OC(C)(C)C)C(=O)O (stereo not drawn) [Example 27, 2-(tert-butoxy)-2-{3-[(E)-2-cyclopropylethenyl]-4-(3,4-dihydro-2H-1-benzopyran-6-yl)-1-methyl-1H-pyrazol-5-yl}acetic acid]	5300 nM
Cn1nc(-c2csc3ccccc23)c(-c2ccc3c(c2)CCCO3)c1C(OC(C)(C)C)C(=O)O (stereo not drawn) [Example 38, 2-[3-benzo[b]thiophen-3-yl-4-(3,4-dihydro-2H-1-benzopyran-6-yl)-1-methyl-1H-pyrazol-5-yl]-2-(tert-butoxy)acetic acid]	2200 nM
Cn1nc(-c2cc3c(s2)CCC3)c(-c2ccc3c(c2)CCCO3)c1C(OC(C)(C)C)C(=O)O (stereo not drawn) [Example 37, 2-(tert-butoxy)-2-(3-{4H,5H,6H-cyclopenta[b]thiophen-2-yl}-4-(3,4-dihydro-2H-1-benzopyran-6-yl)-1-methyl-1H-pyrazol-5-yl)acetic acid]	3300 nM
Cn1nc(-c2ccccn2)c(-c2ccc3c(c2)CCCO3)c1C(OC(C)(C)C)C(=O)O (stereo not drawn) [Example 9, 2-(tert-butoxy)-2-[4-(3,4-dihydro-2H-1-benzopyran-6-yl)-1-methyl-3-(pyridin-2-yl)-1H-pyrazol-5-yl]acetic acid]	3700 nM

Same assay, conditions: Human immunodeficiency virus 1, NL43, MT4, 120 h

SMILES	EC50
Cn1nc(C2=CC3CCC2C3)c(-c2ccc3c(c2)CCCO3)c1C(OC(C)(C)C)C(=O)O (stereo not drawn) [Example 15, 2-(3-{bicyclo[2.2.1]hept-2-en-2-yl}-4-(3,4-dihydro-2H-1-benzopyran-6-yl)-1-methyl-1H-pyrazol-5-yl)-2-(tert-butoxy)acetic acid]	550 nM
